# Measured values: patent publication US8134015B2, “Compound inhibiting in vivo phosphorous transport and medicine containing the same” (Kyowa Hakko Kirin Co., Ltd., priority 2003, dated 2012)
# Experiments:
# rat NaPi-2b = target: T1, rat NaPi-2b (Rattus norvegicus, UniProt Q9JJ09); experiment: Sodium-dependent phosphate uptake of Xenopus oocytes which expressed NaPi-2b (32P); format: cell-based; conditions: Xenopus oocytes expressing rat NaPi-2b, 32P radioactive phosphorus; read-out: IC50 (phosphate uptake inhibitory activity)
# T1 construct: expressed in transfected cells; host or cells: Xenopus oocytes injected with cRNA
# T1 sequence (Q9JJ09 1-695): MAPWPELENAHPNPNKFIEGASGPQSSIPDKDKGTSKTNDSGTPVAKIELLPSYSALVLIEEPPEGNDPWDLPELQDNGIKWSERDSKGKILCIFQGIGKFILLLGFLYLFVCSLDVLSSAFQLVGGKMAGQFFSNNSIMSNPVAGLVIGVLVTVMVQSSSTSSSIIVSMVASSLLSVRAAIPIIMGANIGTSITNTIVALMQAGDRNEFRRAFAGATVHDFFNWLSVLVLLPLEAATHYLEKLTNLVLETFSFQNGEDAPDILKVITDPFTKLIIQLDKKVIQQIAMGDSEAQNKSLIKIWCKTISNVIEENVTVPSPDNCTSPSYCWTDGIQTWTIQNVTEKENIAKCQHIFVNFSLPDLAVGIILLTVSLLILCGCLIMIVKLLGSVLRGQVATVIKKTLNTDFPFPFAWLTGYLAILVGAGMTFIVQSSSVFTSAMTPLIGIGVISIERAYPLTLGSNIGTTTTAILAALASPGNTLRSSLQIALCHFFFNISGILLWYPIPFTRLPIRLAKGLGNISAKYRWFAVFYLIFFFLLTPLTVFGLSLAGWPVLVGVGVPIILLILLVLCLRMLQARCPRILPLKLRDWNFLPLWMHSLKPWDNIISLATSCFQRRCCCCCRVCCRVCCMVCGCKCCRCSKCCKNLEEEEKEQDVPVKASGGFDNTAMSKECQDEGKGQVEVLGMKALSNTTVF
# Procedure, shortened: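 Rat small-intestine NaPi-2b cRNA injected into Xenopus oocytes, expressed for 2 days. Sodium-dependent phosphate uptake measured with 32P; % inhibition at 300 and 100 μM taken from the same inhibition curve.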
# human NaPi-2a = target: T2, human NaPi-2a (Homo sapiens, UniProt Q06495); experiment: Sodium-dependent phosphate uptake of Xenopus oocytes which expressed NaPi-2a (32P); format: cell-based; conditions: phosphate uptake, Xenopus oocytes expressing human NaPi-2a; five concentration levels
# T2 construct: expressed in transfected cells
# T2 sequence (Q06495 1-639): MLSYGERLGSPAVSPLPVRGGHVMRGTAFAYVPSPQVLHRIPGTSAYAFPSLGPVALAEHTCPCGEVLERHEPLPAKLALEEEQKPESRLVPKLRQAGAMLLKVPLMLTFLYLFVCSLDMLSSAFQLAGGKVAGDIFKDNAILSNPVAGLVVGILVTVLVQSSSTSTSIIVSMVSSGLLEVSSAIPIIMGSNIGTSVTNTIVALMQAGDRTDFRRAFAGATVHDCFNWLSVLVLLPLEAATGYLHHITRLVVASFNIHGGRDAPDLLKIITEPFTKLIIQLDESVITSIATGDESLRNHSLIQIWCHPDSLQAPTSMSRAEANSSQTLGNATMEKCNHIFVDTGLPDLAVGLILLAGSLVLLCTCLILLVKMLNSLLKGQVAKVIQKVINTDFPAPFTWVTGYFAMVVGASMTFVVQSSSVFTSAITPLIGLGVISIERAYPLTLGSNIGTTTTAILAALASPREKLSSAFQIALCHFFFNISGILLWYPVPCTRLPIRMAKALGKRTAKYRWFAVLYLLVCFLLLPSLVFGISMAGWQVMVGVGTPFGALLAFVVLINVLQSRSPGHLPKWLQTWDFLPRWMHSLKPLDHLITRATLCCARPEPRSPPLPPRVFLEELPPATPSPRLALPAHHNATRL
# Description: Experiment of Sodium-Dependent Phosphate Uptake of Xenopus oocytes which Expressed NaPi-2a
# In the test, a group with the addition of choline chloride (Choline Cl) was used as a negative control for nonspecific uptake, and PFA (phosphonoformic acid) was used as a positive control for phosphate transport inhibition.
SMILES,IC50 (rat NaPi-2b) [µM],IC50 (human NaPi-2a) [µM]
"O=C(Nc1ccc(Br)cc1C(=O)N/N=C/c1ccc(F)cc1)c1ccc(CSCCO)cc1 [Compound 262, N-[4-Bromo-2-(4-fluoro-benzylidene-hydrazinocarbonyl)-phenyl]-4-(2-hydroxy-ethylsulfanylmethyl)-benzamide]",1.1,4.42
"Cc1ccc(/C=N/NC(=O)c2cc(Br)ccc2NC(=O)c2ccc(CSCCO)cc2)cc1 [Compound 264, N-[4-Bromo-2-(4-methyl-benzylidene-hydrazinocarbonyl)-phenyl]-4-(2-hydroxy-ethylsulfanylmethyl)-benzamide]",< 1,4.36
"Cc1csc(NC(=O)c2cccc(CN(CC(C)O)CC(C)O)c2)c1C(=O)N/N=C/c1ccc(Cl)c(C(F)(F)F)c1 (stereo not shown) [Compound 591, 3-{[bis-(2-hydroxy-propyl)-amino]-methyl}-N-[3-(4-chloro-3-trifluoromethyl-benzylidene-hydrazinocarbonyl)-4-methyl-thiophen-2-yl]-benzamide]",1.01,4.04
"COc1ccc(/C=N/NC(=O)c2c(C)csc2NC(=O)c2cccc(CN(CC(C)O)CC(C)O)c2)cc1 (stereo not shown) [Compound 592, 3-{[Bis-(2-hydroxy-propyl)-amino]-methyl}-N-[3-(4-methoxy-benzylidene-hydrazinocarbonyl)-4-methyl-thiophen-2-yl]-benzamide]",11.9,9.51
"Cc1ccc(/C=N/NC(=O)c2c(NC(=O)c3cccc(CN(CC(C)O)CC(C)O)c3)sc3c2CCCC3)cc1C (stereo not shown) [Compound 627, 3-{[Bis-(2-hydroxy-propyl)-amino]-methyl}-N-[3-(3,4-dimethyl-benzylidene-hydrazinocarbonyl)-4,5,6,7-tetrahydro-benzo-[b]thiophen-2-yl]-benzamide]",< 1,3.53
"Cc1ccc(/C=N/NC(=O)c2c(NC(=O)c3cccc(CN(CC(C)O)CC(C)O)c3)sc3c2CCCC3)cc1 (stereo not shown) [Compound 628, 3-{[Bis-(2-hydroxy-propyl)-amino]-methyl}-N-[3-(4-methyl-benzylidene-hydrazinocarbonyl)-4,5,6,7-tetrahydro-benzo-[b]thiophen-2-yl]-benzamide]",1.29,3.59
"CC(O)CN(Cc1cccc(C(=O)Nc2sc3c(c2C(=O)N/N=C/c2ccc(F)cc2)CCCC3)c1)CC(C)O (stereo not shown) [Compound 629, 3-{[Bis-(2-hydroxy-propyl)-amino]-methyl}-N-[3-(4-fluoro-benzylidene-hydrazinocarbonyl)-4,5,6,7-tetrahydro-benzo[b]thiophen-2-yl]-benzamide]",3.01,12.9
"CC(O)CN(Cc1cccc(C(=O)Nc2sc3c(c2C(=O)N/N=C/c2cccc(F)c2)CCCC3)c1)CC(C)O (stereo not shown) [Compound 630, 3-{[Bis-(2-hydroxy-propyl)-amino]-methyl}-N-[3-(3-fluoro-benzylidene-hydrazinocarbonyl)-4,5,6,7-tetrahydro-benzo[b]thiophen-2-yl]-benzamide]",< 1,3.5
"CC(O)CN(Cc1cccc(C(=O)Nc2sc3c(c2C(=O)N/N=C/c2ccc(Cl)c(C(F)(F)F)c2)CCCC3)c1)CC(C)O (stereo not shown) [Compound 631, 3-{[Bis-(2-hydroxy-propyl)-amino]-methyl}-N-[3-(4-chloro-3-trifluoromethyl-benzylidene-hydrazinocarbonyl)-4,5,6,7-tetrahydro-benzo[b]thiophen-2-yl]-benzamide]",< 1,2.43
"COc1ccc(/C=N/NC(=O)c2c(NC(=O)c3cccc(CN(CC(C)O)CC(C)O)c3)sc3c2CCCC3)cc1 (stereo not shown) [Compound 632, 3-{[Bis-(2-hydroxy-propyl)-amino]-methyl}-N-[3-(4-methoxy-benzylidene-hydrazinocarbonyl)-4,5,6,7-tetrahydro-benzo-[b]thiophen-2-yl]-benzamide]",< 1,28.7
"Cc1ccc(/C=N/NC(=O)c2c(NC(=O)c3cccc(CN4CCC(O)CC4)c3)sc3c2CCCC3)cc1C [Compound 633, N-[3-(3,4-Dimethyl-benzylidene-hydrazinocarbonyl)-4,5,6,7-tetrahydro-benzo[b]thiophen-2-yl]-3-(4-hydroxy-piperidin-1-ylmethyl)-benzamide]",1.19,13.5
"Cc1ccc(/C=N/NC(=O)c2c(NC(=O)c3cccc(CN4CCC(O)CC4)c3)sc3c2CCCC3)cc1 [Compound 634, 3-(4-Hydroxy-piperidin-1-ylmethyl)-N-[3-(4-methyl-benzylidene-hydrazinocarbonyl)-4,5,6,7-tetrahydro-benzo[b]thiophen-2-yl]-benzamide]",1.74,16.9
"O=C(Nc1sc2c(c1C(=O)N/N=C/c1ccc(F)cc1)CCCC2)c1cccc(CN2CCC(O)CC2)c1 [Compound 635, N-[3-(4-Fluoro-benzylidene-hydrazinocarbonyl)-4,5,6,7-tetrahydro-benzo[b]thiophen-2-yl]-3-(4-hydroxy-piperidin-1-ylmethyl)-benzamide]",1.56,1.34
"O=C(Nc1sc2c(c1C(=O)N/N=C/c1cccc(F)c1)CCCC2)c1cccc(CN2CCC(O)CC2)c1 [Compound 636, N-[3-(3-Fluoro-benzylidene-hydrazinocarbonyl)-4,5,6,7-tetrahydro-benzo[b]thiophen-2-yl]-3-(4-hydroxy-piperidin-1-ylmethyl)-benzamide]",3.89,5.3
"O=C(Nc1sc2c(c1C(=O)N/N=C/c1ccc(Cl)c(C(F)(F)F)c1)CCCC2)c1cccc(CN2CCC(O)CC2)c1 [Compound 637, N-[3-(4-Chloro-3-trifluoromethyl-benzylidene-hydrazinocarbonyl)-4,5,6,7-tetrahydro-benzo[b]thiophen-2-yl]-3-(4-hydroxy-piperidin-1-ylmethyl)-benzamide]",< 1,0.95
"COc1ccc(/C=N/NC(=O)c2c(NC(=O)c3cccc(CN4CCC(O)CC4)c3)sc3c2CCCC3)cc1 [Compound 638, 3-(4-Hydroxy-piperidin-1-ylmethyl)-N-[3-(4-methoxy-benzylidene-hydrazinocarbonyl)-4,5,6,7-tetrahydro-benzo[b]thiophen-2-yl]-benzamide]",3.15,4.22
"Cc1ccc(/C=N/NC(=O)c2c(NC(=O)c3cccc(CN4CCC(CO)CC4)c3)sc3c2CCCC3)cc1C [Compound 639, N-[3-(3,4-Dimethyl-benzylidene-hydrazinocarbonyl)-4,5,6,7-tetrahydro-benzo[b]thiophen-2-yl]-3-(4-hydroxymethyl-piperidin-1-ylmethyl)-benzamide]",1.84,11.1
"Cc1ccc(/C=N/NC(=O)c2c(NC(=O)c3cccc(CN4CCC(CO)CC4)c3)sc3c2CCCC3)cc1 [Compound 640, 3-(4-Hydroxymethyl-piperidin-1-ylmethyl)-N-[3-(4-methyl-benzylidene-hydrazinocarbonyl)-4,5,6,7-tetrahydro-benzo[b]thiophen-2-yl]-benzamide]",1.61,15.6
"O=C(Nc1sc2c(c1C(=O)N/N=C/c1ccc(F)cc1)CCCC2)c1cccc(CN2CCC(CO)CC2)c1 [Compound 641, N-[3-(4-Fluoro-benzylidene-hydrazinocarbonyl)-4,5,6,7-tetrahydro-benzo[b]thiophen-2-yl]-3-(4-hydroxymethyl-piperidin-1-ylmethyl)-benzamide]",2.92,7.53
"O=C(Nc1sc2c(c1C(=O)N/N=C/c1cccc(F)c1)CCCC2)c1cccc(CN2CCC(CO)CC2)c1 [Compound 642, N-[3-(3-Fluoro-benzylidene-hydrazinocarbonyl)-4,5,6,7-tetrahydro-benzo[b]thiophen-2-yl]-3-(4-hydroxymethyl-piperidin-1-ylmethyl)-benzamide]",2.14,13.3
